Data published in PubChem BioAssay AID268 (DTP/NCI, 2004).
Several values for one entry are separate records, joined by “and”; a condition that tells them apart may be missing. Equal entries are not always repeated.

Test system: CD2F1 mice, P1798 lymphosarcoma sc, tumor weight T/C
Test: NCI In Vivo Anticancer Drug Screen. Data for tumor model P1798 Lymphosarcoma (subcutaneous) in CD2F1 (CDF1) mice
Settings: endpoint: mean tumor weight, higher = larger tumour
Method: The antitumor activity of compounds was measured in mice bearing transplantable tumors. Survival or tumor size were measured and the results are expressed as the measurement made in the treated group (T) divided by the measurement made in the vehicle treated control group (C). The tumor model used in this assay is P1798 Lymphosarcoma (subcutaneous) in CD2F1 (CDF1) mice

[1] = dose: 12.5 mg/kg/injection, schedule: Q01DX010 (sc), vehicle: steriod suspending solution
[2] = dose: 25.0 mg/kg/injection, schedule: Q01DX010 (sc), vehicle: steriod suspending solution
[3] = dose: 50.0 mg/kg/injection, schedule: Q01DX010 (sc), vehicle: steriod suspending solution
[4] = dose: 5.0 mg/kg/injection, schedule: Q01DX010 (ip), vehicle: saline
[5] = dose: 10.0 mg/kg/injection, schedule: Q01DX010 (ip), vehicle: saline
[6] = dose: 20.0 mg/kg/injection, schedule: Q01DX010 (ip), vehicle: saline
[7] = dose: 15.0 mg/kg/injection, schedule: Q01DX010 (ip), vehicle: saline
[8] = dose: 30.0 mg/kg/injection, schedule: Q01DX010 (ip), vehicle: saline
[9] = dose: 50.0 mg/kg/injection, schedule: Q01DX010 (ip), vehicle: saline
[10] = dose: 100.0 mg/kg/injection, schedule: Q01DX010 (ip), vehicle: saline
[11] = dose: 12.5 mg/kg/injection, schedule: Q01DX010 (ip), vehicle: saline
[12] = dose: 25.0 mg/kg/injection, schedule: Q01DX010 (ip), vehicle: saline
[13] = dose: 200.0 mg/kg/injection, schedule: Q01DX010 (ip), vehicle: saline

CN(C)c1nc(N(C)C)nc(N(C)C)n1
T/C (dose: 18.8 mg/kg/injection, schedule: Q01DX010 (ip), vehicle: saline): 104 % of control and 87 % of control
T/C (dose: 75.0 mg/kg/injection, schedule: Q01DX010 (ip), vehicle: saline): 68 % of control and 82 % of control
T/C (dose: 150.0 mg/kg/injection, schedule: Q01DX010 (ip), vehicle: saline): 26 % of control

CC1C[C@@H]2[C@H]([C@@H](O)C[C@@]3(C)[C@H]2CC[C@]3(O)C(=O)CF)[C@@]2(C)CCC(=O)C=C12 (some centres undefined)
T/C (dose: 12.5 mg/kg/injection, schedule: Q01DX005 (sc), vehicle: steriod suspending solution): 92 % of control
T/C [1]: 54 % of control and 60 % of control
T/C (dose: 25.0 mg/kg/injection, schedule: Q01DX005 (sc), vehicle: steriod suspending solution): 47 % of control
T/C [2]: 57 % of control and 71 % of control
T/C (dose: 50.0 mg/kg/injection, schedule: Q01DX005 (sc), vehicle: steriod suspending solution): 55 % of control
T/C [3]: 58 % of control and 65 % of control
T/C (dose: 50.0 mg/kg/injection, schedule: Q03DX004 (sc), vehicle: steriod suspending solution): 66 % of control
T/C (dose: 75.0 mg/kg/injection, schedule: Q02DX010 (sc), vehicle: steriod suspending solution): 100 % of control
T/C (dose: 100.0 mg/kg/injection, schedule: Q01DX005 (sc), vehicle: steriod suspending solution): 14 % of control
T/C (dose: 100.0 mg/kg/injection, schedule: Q02DX010 (sc), vehicle: steriod suspending solution): 93 % of control
T/C (dose: 100.0 mg/kg/injection, schedule: Q03DX004 (sc), vehicle: steriod suspending solution): 61 % of control
T/C (dose: 150.0 mg/kg/injection, schedule: Q01DX010 (sc), vehicle: steriod suspending solution): 118 % of control
T/C (dose: 150.0 mg/kg/injection, schedule: Q02DX010 (sc), vehicle: steriod suspending solution): 95 % of control
T/C (dose: 200.0 mg/kg/injection, schedule: Q03DX004 (sc), vehicle: steriod suspending solution): 25 % of control

Cc1cc(C(C)(C)C)ccc1O
T/C (dose: 6.2 mg/kg/injection, schedule: Q01DX011 (ip), vehicle: carboxymethylcellulose (CMC)): 47 % of control
T/C (dose: 12.5 mg/kg/injection, schedule: Q01DX011 (ip), vehicle: carboxymethylcellulose (CMC)): 105 % of control
T/C (dose: 25.0 mg/kg/injection, schedule: Q01DX011 (ip), vehicle: carboxymethylcellulose (CMC)): 106 % of control

C=CCOc1ccc2c(c1)CC[C@@H]1[C@@H]2CC[C@]2(C)[C@@H](O)[C@@H](O)C[C@@H]12
T/C (dose: 6.25 mg/kg/injection, schedule: Q01DX010 (sc), vehicle: steriod suspending solution): 98 % of control and 82 % of control
T/C [1]: 77 % of control and 88 % of control

COc1ccc2c(c1OC)C(=O)O[C@@H]2[C@H]1c2c(cc3c(c2OC)OCO3)CCN1C
T/C (dose: 15.6 mg/kg/injection, schedule: Q01DX010 (ip), vehicle: saline): 107 % of control
T/C (dose: 31.3 mg/kg/injection, schedule: Q01DX010 (ip), vehicle: saline): 78 % of control
T/C (dose: 125.0 mg/kg/injection, schedule: Q01DX010 (ip), vehicle: saline): 97 % of control
T/C (dose: 250.0 mg/kg/injection, schedule: Q01DX010 (ip), vehicle: saline): 78 % of control

COc1cc2c3c(c4ccc(OC)c(OC)c4c2cc1OC)CN1CCC[C@@H]1C3
T/C (dose: 1.25 mg/kg/injection, schedule: Q01DX010 (ip), vehicle: saline): 100 % of control and 78 % of control
T/C [4]: 108 % of control and 87 % of control
T/C [5]: 93 % of control and 104 % of control

O=c1[nH]c(=O)n(C2CC(O)C(CO)O2)cc1F (centres undefined)
T/C [4]: 73 % of control
T/C [5]: 68 % of control and 84 % of control
T/C [6]: 47 % of control and 55 % of control
T/C (dose: 40.0 mg/kg/injection, schedule: Q01DX010 (ip), vehicle: saline): 15 % of control and 28 % of control
T/C (dose: 80.0 mg/kg/injection, schedule: Q01DX010 (ip), vehicle: saline): 1 % of control

S=P(N1CCOCC1)(N1CC1)N1CC1
T/C [5]: 50 % of control and 75 % of control
T/C [6]: 24 % of control

CN(C)[C@@H]1C(=O)C(C(N)=O)=C(O)[C@@]2(O)C(=O)C3=C(O)c4c(O)cccc4C[C@H]3C[C@@H]12
T/C [7]: 124 % of control
T/C [8]: 106 % of control

O=C(CNC(=O)OCc1ccccc1)NCCCCCCNCCCCCCNC(=O)CNC(=O)OCc1ccccc1
T/C [9]: 120 % of control
T/C [10]: 97 % of control

O=C(NCCCCC(NC(=O)OCc1ccccc1)C(=O)NCCCCCCNCCCCCCNC(=O)C(CCCCNC(=O)OCc1ccccc1)NC(=O)OCc1ccccc1)OCc1ccccc1 (centres undefined)
T/C [11]: 78 % of control
T/C [12]: 66 % of control
T/C [10]: 44 % of control and 61 % of control
T/C [13]: 70 % of control

COc1ccc2cc3[n+](cc2c1OC)CCc1cc2c(cc1-3)OCO2
T/C (dose: 12.0 mg/kg/injection, schedule: Q01DX011 (ip), vehicle: saline): 75 % of control

C[C@H]1C[C@@H]2[C@H]([C@@H](O)C[C@@]3(C)[C@H]2CC[C@]3(O)C(=O)CO)[C@@]2(C)C=CC(=O)C=C12
T/C [3]: 7 % of control

C[C@]12CC[C@H](O)C[C@@H]1CC[C@@H]1[C@@H]2C(=O)C[C@]2(C)C3=CC(=O)O[C@H]3C[C@@H]12
T/C (dose: 10.0 mg/kg/injection, schedule: Q01DX010 (sc), vehicle: steriod suspending solution): 76 % of control and 83 % of control
T/C (dose: 20.0 mg/kg/injection, schedule: Q01DX010 (sc), vehicle: steriod suspending solution): 97 % of control
T/C (dose: 40.0 mg/kg/injection, schedule: Q01DX010 (sc), vehicle: steriod suspending solution): 87 % of control and 90 % of control
T/C (dose: 80.0 mg/kg/injection, schedule: Q01DX010 (sc), vehicle: steriod suspending solution): 78 % of control and 85 % of control

c1ccc(CSc2ncnc3nc[nH]c23)cc1
T/C [11]: 70 % of control and 82 % of control
T/C [12]: 83 % of control and 85 % of control
T/C [10]: 13 % of control

NC(Cc1ccc(N(CCCl)CCCl)cc1)C(=O)O (centres undefined)
T/C (dose: 2.5 mg/kg/injection, schedule: Q01DX010 (ip), vehicle: saline): 51 % of control
T/C [4]: 39 % of control

O=C(Nc1ccc(C2=NCCN2)cc1)c1ccc(C(=O)Nc2ccc(C3=NCCN3)cc2)cc1
T/C (dose: 16.0 mg/kg/injection, schedule: Q01DX010 (ip), vehicle: saline): 76 % of control
T/C (dose: 32.0 mg/kg/injection, schedule: Q01DX010 (ip), vehicle: saline): 77 % of control
T/C (dose: 64.0 mg/kg/injection, schedule: Q01DX010 (ip), vehicle: saline): 73 % of control
T/C (dose: 128.0 mg/kg/injection, schedule: Q01DX010 (ip), vehicle: saline): 47 % of control

CO[C@@]12[C@H](COC(N)=O)C3=C(C(=O)C(C)=C(N)C3=O)N1C[C@@H]1N[C@@H]12
T/C (dose: 0.25 mg/kg/injection, schedule: Q01DX010 (ip), vehicle: saline): 85 % of control
T/C (dose: 0.5 mg/kg/injection, schedule: Q01DX010 (ip), vehicle: saline): 61 % of control
T/C (dose: 1.0 mg/kg/injection, schedule: Q01DX010 (ip), vehicle: saline): 36 % of control

C[C@@H]1C[C@@]2(C)[C@@H](CC[C@@H]3[C@@H]2CC[C@]2(C)[C@@H](O)CC[C@@H]32)CC1=O
T/C [1]: 118 % of control and 124 % of control
T/C [2]: 100 % of control and 107 % of control
T/C [3]: 101 % of control and 111 % of control
T/C (dose: 100.0 mg/kg/injection, schedule: Q01DX010 (sc), vehicle: steriod suspending solution): 109 % of control and 121 % of control

CC(CCC(C)OS(C)(=O)=O)OS(C)(=O)=O (centres undefined)
T/C (dose: 2.0 mg/kg/injection, schedule: Q01DX010 (ip), vehicle: saline): 101 % of control
T/C (dose: 4.0 mg/kg/injection, schedule: Q01DX010 (ip), vehicle: saline): 59 % of control and 78 % of control
T/C (dose: 8.0 mg/kg/injection, schedule: Q01DX010 (ip), vehicle: saline): 101 % of control and 82 % of control

NC(=O)NO
T/C (dose: 60.0 mg/kg/injection, schedule: Q01DX010 (ip), vehicle: saline): 60 % of control
T/C (dose: 90.0 mg/kg/injection, schedule: Q01DX010 (ip), vehicle: saline): 54 % of control
T/C (dose: 135.0 mg/kg/injection, schedule: Q01DX010 (ip), vehicle: saline): 39 % of control
T/C [13]: 12 % of control

Clc1ncnc2nc[nH]c12
T/C (dose: 7.5 mg/kg/injection, schedule: Q01DX010 (ip), vehicle: saline): 91 % of control
T/C [7]: 84 % of control and 85 % of control
T/C [8]: 102 % of control
T/C (dose: 120.0 mg/kg/injection, schedule: Q01DX010 (ip), vehicle: saline): 91 % of control

O=C(NCCCCC(NC(=O)c1ccccc1)C(=O)NCCCCCCNCCCCCCNC(=O)C(CCCCNC(=O)c1ccccc1)NC(=O)c1ccccc1)c1ccccc1 (centres undefined)
T/C [9]: 98 % of control
T/C [10]: 85 % of control
T/C [13]: 116 % of control
T/C (dose: 400.0 mg/kg/injection, schedule: Q01DX010 (ip), vehicle: saline): 80 % of control

CS(=O)(=O)OCCCCOS(C)(=O)=O
T/C (dose: 6.25 mg/kg/injection, schedule: Q01DX010 (ip), vehicle: saline): 103 % of control
T/C [9]: 58 % of control and 80 % of control
T/C [10]: 52 % of control
